Key:
[1] = test system: LPS-induced pulmonary neutrophilia in rats; assay: In Vivo Assay 1: LPS-induced pulmonary neutrophilia in rats, orally administered PDE4 inhibitors; conditions: po, rat, LPS aerosol 30 min after dosing, BAL 4 hours post LPS, read-out: neutrophilia-inhibition ED50
Excerpt: In Vivo Assay 1. LPS-induced Pulmonary Neutrophilia in Rats: Effect of Orally Administered PDE4 Inhibitors
The purpose of this neutrophilia model is to study the potentially anti-inflammatory effects in vivo of orally administered PDE4 inhibitors on neutrophilia induced by inhalation of aerosolized lipopolysaccharide (LPS), modelling the neutrophil inflammatory component(s) of COPD. See the literature section below for scientific background.
Male Lewis rats (Charles River, Raleigh, N.C., USA) weighing approximately 300-400 grams are pretreated with either (a) test compound suspended in 0.5% methylcellulose (obtainable from Sigma-Aldrich, St Louis, Mo., USA) in water or (b) vehicle only, delivered orally in a dose volume of 10 ml/kg. Generally, dose response curves are generated using the following doses of PDE4 inhibitors: 10.0, 2.0, 0.4, 0.08 and 0.016 mg/kg. Thirty minutes following pretreatment, the rats are exposed to aerosolized LPS (Serotype E. Coli 026:B6 prepared by trichloroacetic acid extraction, obtainable from Sigma-Aldrich, St Louis, Mo., USA), generated from a nebulizer containing a 100 μg/ml LPS solution. Rats are exposed to the LPS aerosol at a rate of 4 L/min for 20 minutes. LPS exposure is carried out in a closed chamber with internal dimensions of 45 cm length×24 cm width×20 cm height. The nebulizer and exposure chamber are contained in a certified fume hood. At 4 hours-post LPS exposure the rats are euthanized by overdose with pentobarbital at 90 mg/kg, administered intraperitoneally. Bronchoalveolar lavage (BAL) is performed through a 14 gauge blunt needle into the exposed trachea. Five, 5 ml washes are performed to collect a total of 25 ml of BAL fluid. Total cell counts and leukocyte differentials are performed on BAL fluid in order to calculate neutrophil influx into the lung. Percent neutrophil inhibition at each dose (cf. vehicle) is calculated and a variable slope, sigmoidal dose-response curve is generated, usually using Prism Graph-Pad. The dose-response curve is used to calculate an ED50 value (in mg per kg of body weight) for inhibition by the PDE4 inhibitor of the LPS-induced neutrophilia
Alternative method and results: In an alternative embodiment of the procedure, a single oral dose of 10 mg/kg or 1 mg/kg of the PDE4 inhibitor (or vehicle) is administered to the rats, and percent neutrophil inhibition is calculated and reported for that specific dose.

[2] = test system: pica feeding response of rats; assay: In Vivo Assay 2: rat pica model of emesis; conditions: oral dosing, upper end given as greater than about 50 mg/kg
Excerpt: In Vivo Assay 2. Rat Pica Model of Emesis
However, a side effect of some PDE4 inhibitors in many species is emesis. Because many rat models of inflammation are well characterized, they have been used in procedures (see e.g. In Vivo Assay 1 above) to show beneficial anti-inflammatory effects of PDE 4 inhibitors. However rats have no emetic response (they have no vomit reflex), so that the relationship between beneficial anti-inflammatory effects of PDE 4 inhibitors and emesis is difficult to study directly in rats.
Pica feeding is a behavioural response to illness in rats wherein rats eat non-nutritive substances such as earth or in particular clay (e.g. kaolin) which may help to absorb toxins. Pica feeding can be induced by motion and chemicals (especially chemicals which are emetic in humans), and can be inhibited pharmacologically with drugs that inhibit emesis in humans. The Rat Pica Model, In Vivo Assay 2, can determine the level of pica response of rats to PDE 4 inhibition at pharmacologically relevant doses in parallel to in vivo anti-inflammatory Assays in (a separate set of) rats (e.g. In Vivo Assay 1 above). Anti-inflammatory and pica assays in the same species together can provide data on the “therapeutic index” (TI) in the rat of the compounds/salts of the invention. The Rat TI can for example be calculated as the ratio of a) the potentially-emetic Pica Response ED50 dose from Assay 2 to b) the rat anti-inflammatory ED50 dose (e.g. measured by rat neutrophilia-inhibition in eg In Vivo Assay 1), with larger TI ratios possibly indicating lower emesis at many anti-inflammatory doses. This might allow a choice of a non-emetic or minimal-emetic pharmaceutical dose of the compounds or salts of the invention which has an anti-inflammatory effect. It is recognised however that achieving a low-emetic PDE4 inhibitory compound is not essential to the invention.
Procedure: On the first day of the experiment, the rats are housed individually in cages without bedding or “enrichment”. The rats are kept off of the cage floor by a wire screen. Pre-weighed food cups containing standard rat chow and clay pellets are placed in the cage. The clay pellets, obtainable from Languna Clay Co, City of Industry, Calif., USA, are the same size and shape as the food pellets. The rats are acclimated to the clay for 72 hours, during which time the cups and food and clay debris from the cage are weighed daily on an electronic balance capable of measuring to the nearest 0.1 grams. By the end of the 72 hour acclimation period the rats generally show no interest in the clay pellets.
At the end of 72 hours the rats are placed in clean cages and the food cups weighed. Rats that are still consuming clay regularly are removed from the study. […] The food and clay cups and cage debris are weighed the following day and the total clay and food consumed that night by each individual animal is calculated.
A dose response is calculated by first converting the data into quantal response, where animals are either positive or negative for the pica response. A rat is “pica positive” if it consumes greater than or equal to 0.3 grams of clay […] using logistic regression performed by the Statistica software statistical package. A Pica Response ED50 value in mg per kg of body weight can then be calculated. […]

Row | Compound | ED50 [1] | ED50 [2]
1 | CCn1ncc2c(NC3CCOCC3)c(-c3nnc(C)o3)cnc21 [Example 14, 1-Ethyl-5-(5-methyl-1,3,4-oxadiazol-2-yl)-N-(tetrahydro-2H-pyran-4-yl)-1H-pyrazolo[3,4-b]pyridin-4-amine] | 0.03 to 1 mg/kg | 2 to 50 mg/kg
2 | CCn1ncc2c(NC3CCOCC3)c(-c3nnc(C(C)(C)C)o3)cnc21 [Example 17, 5-(S-Tert-butyl-1,3,4-oxadiazol-2-yl)-1-ethyl-N-(tetrahydro-2H-pyran-4-yl)-1H-pyrazolo[3,4-b]pyridin-4-amine] | 0.03 to 1 mg/kg | 2 to 50 mg/kg
3 | CCn1ncc2c(NC3CCOCC3)c(-c3nnc(CS(C)(=O)=O)o3)cnc21 [Example 23, 1-Ethyl-5-{5-[(methylsulfonyl)methyl]-1,3,4-oxadiazol-2-yl}-N-(tetrahydro-2H-pyran-4-yl)-1H-pyrazolo[3,4-b]pyridin-4-amine] | 0.03 to 1 mg/kg | 2 to 50 mg/kg
4 | CCn1ncc2c(NC3CCOCC3)c(-c3nnc(CN4CCN(C)CC4)o3)cnc21 [Example 35, 1-Ethyl-5-{5-[(4-methylpiperazin-1-yl)methyl]-1,3,4-oxadiazol-2-yl}-N-(tetrahydro-2H-pyran-4-yl)-1H-pyrazolo[3,4-b]pyridin-4-amine] | 0.03 to 1 mg/kg | 2 to 50 mg/kg
5 | CCn1ncc2c(NC3CCOCC3)c(-c3nnc(C4CCOCC4)o3)cnc21 [Example 38, 1-Ethyl-N-(tetrahydro-2H-pyran-4-yl)-5-[5-(tetrahydro-2H-pyran-4-yl)-1,3,4-oxadiazol-2-yl]-1H-pyrazolo[3,4-b]pyridin-4-amine] | 0.03 to 1 mg/kg | 2 to 50 mg/kg
